Data as given in ChEMBL document CHEMBL1201862, “PubChem BioAssay data set” (2004).
Several values for one entry are separate records, joined by “and”; a condition that tells them apart may be missing. Equal values may be shown once.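 A five-concentration, 48-hour dose response in 96-well plates underlies each endpoint, interpolated linearly between surrounding concentrations. The concentration for 50% growth inhibition is given as GI50.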 Activity calls are given as the source filed them. No stated cut-off is given here; in the data, active = GI50 up to about 1.1 µM and inactive = higher.

Columns and labels:
Assay in all cases: inhibition of tumour cell growth, NCI panel, 48 h
786-0 = tested on: 786-0
A498 = tested on: A498
A549 = tested on: A549
ACHN = tested on: ACHN
CAKI-1 = tested on: CAKI-1
CCRF-CEM = tested on: CCRF-CEM
DMS-273 = tested on: DMS-273
EKVX = tested on: EKVX
HCC 2998 = tested on: HCC 2998
HCT-116 = tested on: HCT-116
HCT-15 = tested on: HCT-15
HL-60 = tested on: HL-60
HOP-62 = tested on: HOP-62
HOP-92 = tested on: HOP-92
HT-29 = tested on: HT-29
IGROV-1 = tested on: IGROV-1
K562 = tested on: K562
KM12 = tested on: KM12
LOX IMVI = tested on: LOX IMVI
LXFL 529 = tested on: LXFL 529
M14 = tested on: M14
MOLT-4 = tested on: MOLT-4
NCI-H226 = tested on: NCI-H226
NCI-H23 = tested on: NCI-H23
NCI-H460 = tested on: NCI-H460
NCI-H522 = tested on: NCI-H522
OVCAR-3 = tested on: OVCAR-3
OVCAR-5 = tested on: OVCAR-5
OVCAR-8 = tested on: OVCAR-8
RXF 393 = tested on: RXF 393
SF-268 = tested on: SF-268
SF-295 = tested on: SF-295
SF-539 = tested on: SF-539
SK-MEL-28 = tested on: SK-MEL-28
SK-MEL-2 = tested on: SK-MEL-2
SK-OV-3 = tested on: SK-OV-3
SN12C = tested on: SN12C
SNB-19 = tested on: SNB-19
SNB-75 = tested on: SNB-75
SNB-78 = tested on: SNB-78
SR = tested on: SR
SW-620 = tested on: SW-620
TK-10 = tested on: TK-10
U-251 = tested on: U-251
UACC-257 = tested on: UACC-257
UACC-62 = tested on: UACC-62
UO-31 = tested on: UO-31
XF498 = tested on: XF498
COLO 205 = tested on: COLO 205
DLD-1 = tested on: DLD-1
DMS-114 = tested on: DMS-114
KM-20L2 = tested on: KM-20L2
M19-MEL = tested on: M19-MEL
Malme-3M = tested on: Malme-3M
OVCAR-4 = tested on: OVCAR-4
RPMI-8226 = tested on: RPMI-8226
SK-MEL-5 = tested on: SK-MEL-5
HOP-18 = tested on: HOP-18
MCF7 = tested on: MCF7
NCI/ADR-RES = tested on: NCI/ADR-RES

In the case of `CN(C)c1c([O-])c(=[N+](C)C)c1=O`, the GI50 (786-0) was > 100 µM (inactive), the GI50 (A498) was > 100 µM (inactive) and the GI50 (A549) was > 100 µM (inactive). For the same molecule, the GI50 (ACHN) was > 100 µM (inactive), the GI50 (CAKI-1) was > 100 µM (inactive) and the GI50 (CCRF-CEM) was > 100 µM (inactive). For the same molecule, the GI50 (DMS-273) was > 100 µM (inactive), the GI50 (EKVX) was > 100 µM (inactive) and the GI50 (HCC 2998) was > 100 µM (inactive). For the same molecule, the GI50 (HCT-116) was > 100 µM (inactive), the GI50 (HCT-15) was over 100 µM and the GI50 (HL-60) was > 100 µM (inactive). For the same molecule, the GI50 (HOP-62) was > 100 µM (inactive), the GI50 (HOP-92) was > 100 µM (inactive) and the GI50 (HT-29) was > 100 µM (inactive). For the same molecule, the GI50 (IGROV-1) was > 100 µM (inactive), the GI50 (K562) was > 100 µM (inactive) and the GI50 (KM12) was > 100 µM (inactive). For the same molecule, the GI50 (LOX IMVI) was > 100 µM (inactive), the GI50 (LXFL 529) was > 100 µM (inactive) and the GI50 (M14) was > 100 µM (inactive). The GI50 (MOLT-4) was > 100 µM (inactive), the GI50 (NCI-H226) was > 100 µM (inactive) and the GI50 (NCI-H23) was > 100 µM (inactive). The GI50 (NCI-H460) was > 100 µM (inactive), the GI50 (NCI-H522) was > 100 µM (inactive) and the GI50 (OVCAR-3) was > 100 µM (inactive). For the same molecule, the GI50 (OVCAR-5) was > 100 µM (inactive), the GI50 (OVCAR-8) was > 100 µM (inactive) and the GI50 (RXF 393) was > 100 µM (inactive). For the same molecule, the GI50 (SF-268) was > 100 µM (inactive), the GI50 (SF-295) was > 100 µM (inactive) and the GI50 (SF-539) was > 100 µM (inactive). The GI50 (SK-MEL-28) was > 100 µM (inactive), the GI50 (SK-MEL-2) was > 100 µM (inactive) and the GI50 (SK-OV-3) was > 100 µM (inactive). For the same molecule, the GI50 (SN12C) was > 100 µM (inactive), the GI50 (SNB-19) was > 100 µM (inactive) and the GI50 (SNB-75) was > 100 µM (inactive). For the same molecule, the GI50 (SNB-78) was > 100 µM (inactive), the GI50 (SR) was > 100 µM (inactive) and the GI50 (SW-620) was > 100 µM (inactive). For the same molecule, the GI50 (TK-10) was > 100 µM (inactive), the GI50 (U-251) was > 100 µM (inactive) and the GI50 (UACC-257) was > 100 µM (inactive). The GI50 (UACC-62) was > 100 µM (inactive), the GI50 (UO-31) was > 100 µM (inactive) and the GI50 (XF498) was > 100 µM (inactive).
For `CC#Cc1c(C#CC)c(OC)c2c(c1OC)C(=O)c1ccccc1C2=O`, the GI50 (786-0) was 23.3 µM (inactive), the GI50 (A498) was 33.1 µM (inactive) and the GI50 (A549) was 88.3 µM (inactive). The GI50 (ACHN) was 14.3 µM (inactive), the GI50 (CAKI-1) was 47.9 µM (inactive) and the GI50 (CCRF-CEM) was > 100 µM (inactive). For the same molecule, the GI50 (COLO 205) was > 100 µM (inactive), the GI50 (DLD-1) was 76 µM (inactive) and the GI50 (DMS-114) was 20.7 µM (inactive). The GI50 (DMS-273) was 22.8 µM (inactive), the GI50 (EKVX) was 45.7 µM (inactive) and the GI50 (HCC 2998) was > 100 µM (inactive). The GI50 (HCT-116) was 15.9 µM (inactive), the GI50 (HCT-15) was 61.7 µM and the GI50 (HL-60) was 33 µM (inactive). The GI50 (HOP-62) was 17.3 µM (inactive), the GI50 (HT-29) was > 100 µM (inactive) and the GI50 (IGROV-1) was 73.6 µM (inactive). The GI50 (K562) was > 100 µM (inactive), the GI50 (KM-20L2) was > 100 µM (inactive) and the GI50 (KM12) was > 100 µM (inactive). For the same molecule, the GI50 (LOX IMVI) was > 100 µM (inactive), the GI50 (LXFL 529) was 54.2 µM (inactive) and the GI50 (M14) was 33.6 µM (inactive). For the same molecule, the GI50 (M19-MEL) was > 100 µM (inactive), the GI50 (MOLT-4) was > 100 µM (inactive) and the GI50 (Malme-3M) was > 100 µM (inactive). The GI50 (NCI-H23) was 29.8 µM (inactive), the GI50 (NCI-H460) was > 100 µM (inactive) and the GI50 (NCI-H522) was 3.15 µM (inactive). For the same molecule, the GI50 (OVCAR-3) was > 100 µM (inactive), the GI50 (OVCAR-4) was > 100 µM (inactive) and the GI50 (OVCAR-5) was > 100 µM (inactive). For the same molecule, the GI50 (OVCAR-8) was 66.5 µM (inactive), the GI50 (RPMI-8226) was 39.2 µM (inactive) and the GI50 (RXF 393) was 10.7 µM (inactive). The GI50 (SF-268) was 25.7 µM (inactive), the GI50 (SF-295) was 13.3 µM (inactive) and the GI50 (SK-MEL-28) was > 100 µM (inactive). The GI50 (SK-MEL-2) was 38.5 µM (inactive), the GI50 (SK-MEL-5) was 49.1 µM (inactive) and the GI50 (SK-OV-3) was 34.9 µM (inactive). For the same molecule, the GI50 (SN12C) was > 100 µM (inactive), the GI50 (SNB-19) was 20.3 µM (inactive) and the GI50 (SR) was 46.6 µM (inactive). The GI50 (SW-620) was > 100 µM (inactive), the GI50 (TK-10) was 41.8 µM (inactive) and the GI50 (U-251) was 21.4 µM (inactive). The GI50 (UACC-257) was > 100 µM (inactive), the GI50 (UACC-62) was 23.9 µM (inactive) and the GI50 (UO-31) was 26 µM (inactive). For the same molecule, the GI50 (XF498) was > 100 µM (inactive).
For `CC(=O)c1c(O)c(C)c(O)c2c1OC1=CC(=O)C(C(C)=O)C(=O)C12C` (stereo not drawn), the GI50 (Malme-3M) was 13.1 µM (inactive) and 23.7 µM (inactive), the GI50 (SK-MEL-28) was 14.3 µM (inactive) and 17.1 µM (inactive) and the GI50 (XF498) was 555 nM (active) and 422 nM (active).
In the case of `C=CC[N+](CCO)(CCO)CCCCCCCCCCCCCCCCCC`, the GI50 (A498) was 15.6 µM (inactive), the GI50 (A549) was 11.3 µM (inactive) and the GI50 (CAKI-1) was 4.46 µM (inactive). The GI50 (CCRF-CEM) was 1.23 µM (inactive), the GI50 (COLO 205) was 3.36 µM (inactive) and the GI50 (DLD-1) was 5.93 µM (inactive). The GI50 (DMS-114) was 3.96 µM (inactive), the GI50 (DMS-273) was 2.26 µM (inactive) and the GI50 (EKVX) was 17 µM (inactive). For the same molecule, the GI50 (HCC 2998) was 3.23 µM (inactive), the GI50 (HCT-116) was 3.4 µM (inactive) and the GI50 (HCT-15) was 12.8 µM. For the same molecule, the GI50 (HL-60) was 0.714 µM (active), the GI50 (HOP-18) was 8.34 µM (inactive) and the GI50 (HOP-62) was 6.38 µM (inactive). For the same molecule, the GI50 (HOP-92) was 1.5 µM (inactive), the GI50 (HT-29) was 3.08 µM (inactive) and the GI50 (IGROV-1) was 1.97 µM (inactive). The GI50 (K562) was 2.96 µM (inactive), the GI50 (KM-20L2) was 3.66 µM (inactive) and the GI50 (KM12) was 1.99 µM (inactive). The GI50 (LOX IMVI) was 2.75 µM (inactive), the GI50 (M19-MEL) was 3.34 µM (inactive) and the GI50 (MCF7) was 7.1 µM (inactive). The GI50 (MOLT-4) was 1.61 µM (inactive), the GI50 (Malme-3M) was 14.8 µM (inactive) and the GI50 (NCI-H226) was 7.78 µM (inactive). The GI50 (NCI-H23) was 12.5 µM (inactive), the GI50 (NCI-H460) was 4.05 µM (inactive) and the GI50 (NCI-H522) was 3.77 µM (inactive). The GI50 (NCI/ADR-RES) was 23.5 µM (inactive), the GI50 (OVCAR-3) was 5.11 µM (inactive) and the GI50 (OVCAR-4) was 3.88 µM (inactive). For the same molecule, the GI50 (OVCAR-5) was 14 µM (inactive), the GI50 (OVCAR-8) was 9.25 µM (inactive) and the GI50 (RPMI-8226) was 2.25 µM (inactive). The GI50 (RXF 393) was 2.19 µM (inactive), the GI50 (SF-268) was 3.33 µM (inactive) and the GI50 (SF-295) was 4.41 µM (inactive). For the same molecule, the GI50 (SF-539) was 3.54 µM (inactive), the GI50 (SK-MEL-28) was 12.9 µM (inactive) and the GI50 (SK-MEL-2) was 14.5 µM (inactive). The GI50 (SK-MEL-5) was 8.13 µM (inactive), the GI50 (SK-OV-3) was 10.9 µM (inactive) and the GI50 (SN12C) was 6.78 µM (inactive). The GI50 (SNB-19) was 8.91 µM (inactive), the GI50 (SNB-75) was 2.43 µM (inactive) and the GI50 (SNB-78) was 3.12 µM (inactive). The GI50 (SW-620) was 6.24 µM (inactive), the GI50 (U-251) was 1.97 µM (inactive) and the GI50 (UACC-257) was 6.38 µM (inactive). The GI50 (UACC-62) was 4.58 µM (inactive) and the GI50 (UO-31) was 9.62 µM (inactive).
With `CCCCCCCCCCCCCB(O)O` the GI50 (CCRF-CEM) was > 100 µM (inactive), the GI50 (DMS-114) was > 100 µM (inactive) and the GI50 (DMS-273) was > 100 µM (inactive). For the same molecule, the GI50 (M14) was > 100 µM (inactive), the GI50 (NCI-H23) was > 100 µM (inactive) and the GI50 (OVCAR-3) was > 100 µM (inactive). For the same molecule, the GI50 (OVCAR-5) was > 100 µM (inactive), the GI50 (SK-MEL-2) was > 100 µM (inactive) and the GI50 (SNB-19) was > 100 µM (inactive). The GI50 (SW-620) was > 100 µM (inactive), the GI50 (U-251) was > 100 µM (inactive) and the GI50 (XF498) was > 100 µM (inactive).
